# Assay results as given in patent publication US9683231B2, “RNAi-based method of drug screening and characterization” (Massachusetts Institute of Technology, priority 2010, dated 2017).
# Starred links: 1 amine or outer side, 2 acyl side, 3 side chain; linkers in the order of their positions; H or OH if unused. Positions of bridges follow the written chain, without caps; N, C: chain ends. Non-standard residues stand in square brackets, D forms with d. Residues, ends and D or L forms follow the SMILES beside them. Chains are numbered I, II in the order given. Actinocin(9to1) = Cc1c2oc3c(C)ccc(C(=O)[*:1])c3nc-2c(C(=O)[*:2])c(N)c1=O; NMeV = CN[C@H](C(=O)O)C(C)C; Sar = CNCC(=O)O
# Test system: lymphoma cells expressing shATM, shChk2 or shp53
# Experiment: shATM-Chk2-p53 resistance signature
# Format: cell-based, mouse
# Conditions: not given
# Procedure: (3d) A comparison of the shTopoI and shTopoII response signatures for APG and NSC3852 with response signatures derived from established Topol (CPT and CPT11) and TopoII poisons (Dox, Mito and VP-16). […] In each case, one million cells were plated before treatment.
# Eμ-Mycp19^Arf−/− cells were counted and seeded at 1 million cells per ml in 48-well plates and treated with various concentrations of drugs. To approximate therapeutic situations in which drug dose decreases over time, half of the volume from each experiment was removed and replenished with fresh medium every 24 h. Cells were analyzed by fluorescence-activated cell sorting (FACS), with propidium iodide as a viability marker. LD80-90 of drugs are defined as concentrations at which the lowest viability reading out of three FACS time points (24, 48 and 72 h) is between 10% and 20%. After drug dose was determined, Eμ-Mycp19^Arf−/− cells were infected with retroviruses encoding shRNAs targeting particular genes. Individual infected cell populations were counted and seeded at 1 million cells per ml in 48-well plates and treated with drugs using the aforementioned protocol. At 72 h, treated and untreated cells were analyzed by flow cytometry. GFP percentages of live (PI-negative) cells were recorded and used to calculate relative resistance index.
# To compare the relative level of chemoresistance and sensitization conferred by each gene knockdown, the concept of RI (see definition above) was introduced, to more accurately analyze the GFP competition results. The value of RI is defined as X. The biological meaning of this factor X is that in a mixture of uninfected and infected (knockdown) cells, the infected (knockdown) cells will be X-fold as likely to survive drug treatment when compared to uninfected cells. By this definition of X, if one out of n uninfected cells survives a drug treatment, then X our of n infected cells should survive. If the total number of uninfected and infected cells are defined as T and the GFP percentage of untreated population are defined as G1, then the number of surviving, uninfected cells (un) can be defined as n−un=T×(1−G1)×1/n, and the number of surviving, infected cells (in) can be defined as n−in=Tx G1×X/n. […] From this equation, it can be derived that X=(G2−G1×G2)/(G1−G1×G2). This equation was used in the studies to compute RI values.
row,SMILES,shATM-Chk2-p53 resistance signature
1,COc1cccc2c1C(=O)c1c(O)c3c(c(O)c1C2=O)C[C@@](O)(C(=O)CO)C[C@@H]3O[C@H]1C[C@H](N)[C@H](O)[C@H](C)O1 [Doxorubicin],significant resistance

# Same assay, conditions: suppression of ATM, Chk2 and p53
row,SMILES,shATM-Chk2-p53 resistance signature
1,CC[C@@]1(O)C(=O)OCc2c1cc1n(c2=O)Cc2cc3ccccc3nc2-1 [Camptothecin],significant resistance
2,N.N.[Cl][Pt][Cl] [Cisplatin],significant resistance
3,O=C(O)CCCc1ccc(N(CCCl)CCCl)cc1 [Chlorambucil],significant resistance

# Test system: Eμ-Mycp19^Arf−/− mouse lymphoma cells
# Experiment: Drug treatment and FACS viability (propidium iodide) to determine LD80-90
# Format: cell-based
# Conditions: not given
row,SMILES,Concentration used (LD80-90)
1,N.N.O=C([O-])C1(C(=O)[O-])CCC1.[Pt+2] [Carboplatin],16.4 µM

# Same assay, conditions: Mus musculus, read-out: Concentration used (LD80-90)
row,SMILES,IC (80-90)
1,S=P(N1CC1)(N1CC1)N1CC1 [ThioTEPA],2.1 µM

# Same assay, conditions: Mus musculus; concentration at which 80-90% of uninfected lymphoma cells were killed; lowest viability of 24, 48 and 72 h between 10% and 20%; read-out: Concentration used (LD80-90)
row,SMILES,IC (80-90)
1,Cn1nnc2c(C(N)=O)ncn2c1=O [Temozolomide],23.2 µM
2,CN(N=O)C(=O)N[C@@H](C=O)[C@@H](O)[C@H](O)[C@H](O)CO [Streptozocin],83 µM
3,CC[C@]1(O)C[C@H]2CN(CCc3c([nH]c4ccccc34)[C@@](C(=O)OC)(c3cc4c(cc3OC)N(C=O)[C@H]3[C@@](O)(C(=O)OC)[C@H](OC(C)=O)[C@]5(CC)C=CCN6CC[C@]43[C@@H]65)C2)C1 [Vincristine],0.0015 µM
4,CCc1c2c(nc3ccc(OC(=O)N4CCC(N5CCCCC5)CC4)cc13)-c1cc3c(c(=O)n1C2)COC(=O)[C@]3(O)CC [Irinotecan],2.1 µM
5,COc1ccc2c(c1OC)C(=O)O[C@@H]2[C@H]1c2c(cc3c(c2OC)OCO3)CCN1C [Noscapine],58.1 µM
6,CS(=O)(=O)N1CCN(Cc2cc3nc(-c4cccc5[nH]ncc45)nc(N4CCOCC4)c3s2)CC1 [GDC 0941],5.4 µM
7,Nc1ncn([C@H]2C[C@H](O)[C@@H](CO)O2)c(=O)n1 [Decitabine],0.6 µM
8,CC[C@]1(O)C[C@@H]2CN(CCc3c([nH]c4ccccc34)[C@@](C(=O)OC)(c3cc4c(cc3OC)N(C)[C@H]3[C@@](O)(C(=O)OC)[C@H](OC(C)=O)[C@]5(CC)C=CCN6CC[C@]43[C@@H]65)C2)C1 [Vinblastine],0.0025 µM
9,C#Cc1cccc(Nc2ncnc3cc(OCCOC)c(OCCOC)cc23)c1 [Erlotinib],6.5 µM
10,CN(Cc1cnc2nc(N)nc(N)c2n1)c1ccc(C(=O)N[C@@H](CCC(=O)O)C(=O)O)cc1 [Methotrexate],0.033 µM
11,O=c1[nH]cc(F)c(=O)[nH]1 [5-Fluorouracil],0.0305 µM
12,Nc1nc2nc[nH]c2c(=S)[nH]1 [6-Thioguanine],0.054 µM
13,O=C(CCCCCN1C(=O)c2cccc3cccc(c23)C1=O)NO [Scriptaid],0.5 µM
14,CCN(CC)CCCCNc1ncc2cc(-c3cc(OC)cc(OC)c3)c(NC(=O)NC(C)(C)C)nc2n1 [PD 173074],4.2 µM
15,CO[C@H]1C[C@@H]2CC[C@@H](C)[C@@](O)(O2)C(=O)C(=O)N2CCCC[C@H]2C(=O)O[C@H]([C@H](C)C[C@@H]2CC[C@@H](O)[C@H](OC)C2)CC(=O)[C@H](C)/C=C(\C)[C@@H](O)[C@@H](OC)C(=O)[C@H](C)C[C@H](C)/C=C/C=C/C=C/1C [Rapamycin],15 µM
16,COc1cc([C@@H]2c3cc4c(cc3[C@@H](O[C@@H]3O[C@@H]5CO[C@@H](C)O[C@H]5[C@H](O)[C@H]3O)[C@H]3COC(=O)[C@H]23)OCO4)cc(OC)c1O [Etoposide],0.034 µM
17,COc1cc2ncnc(Nc3ccc(F)c(Cl)c3)c2cc1OCCCN1CCOCC1 [Gefitinib],12.5 µM
18,CS(=O)(=O)OCCCCOS(C)(=O)=O [Busulfan],40.6 µM
19,O=C1c2c(O)ccc(O)c2C(=O)c2c(NCCNCCO)ccc(NCCNCCO)c21 [Mitoxantrone],0.0004 µM
20,CC(C)C[C@H](NC(=O)[C@H](Cc1ccccc1)NC(=O)c1cnccn1)B(O)O [Bortezomib],0.013 µM
21,CC(=O)O[C@H]1C(=O)[C@@]2(C)[C@H]([C@H](OC(=O)c3ccccc3)[C@]3(O)C[C@H](OC(=O)[C@H](O)[C@@H](NC(=O)c4ccccc4)c4ccccc4)C(C)=C1C3(C)C)[C@]1(OC(C)=O)CO[C@@H]1C[C@@H]2O [Paclitaxel],0.008 µM
22,Nc1ccn([C@@H]2O[C@H](CO)[C@@H](O)C2(F)F)c(=O)n1 [Gemcitabine],0.1 µM
23,NC(=O)NO [Hydroxyurea],78 µM
24,COc1cccc2c1C(=O)c1c(O)c3c(c(O)c1C2=O)C[C@@](O)(C(=O)CO)C[C@@H]3O[C@H]1C[C@H](N)[C@H](O)[C@H](C)O1 [Doxorubicin],0.0162 µM
25,COc1c(C)cnc(Cn2cnc3c(Cl)nc(N)nc32)c1C [BIIB021],0.79 µM
26,O=c1ncccn1[C@@H]1O[C@H](CO)[C@@H](O)[C@H]1O [Zebularine],30 µM

# Same assay, conditions: Mus musculus; read-out: Concentration used (LD80-90)
row,SMILES,IC (80-90)
1,N[C@@H](Cc1ccc(N(CCCl)CCCl)cc1)C(=O)O [Melphalan],3.9 µM
2,CC[C@H](C)[C@H](NC(=O)[C@H]([C@@H](C)CC)N(C)C(C)=O)C(=O)N[C@H](C(=O)N[C@@H](CC(C)C)C(=O)[C@@]1(C)CO1)[C@@H](C)O [Epoxomicin],0.045 µM
3,CC[C@@]1(O)C(=O)OCc2c1cc1n(c2=O)Cc2cc3ccccc3nc2-1 [Camptothecin],0.0004 µM
4,COc1cccc2c1C(=O)c1c(O)c3c(c(O)c1C2=O)C[C@@](O)(C(C)=O)C[C@@H]3O[C@H]1C[C@H](N)[C@H](O)[C@H](C)O1 [Daunorubicin],0.0225 µM
5,C[C@@]12C(=O)OC(=O)[C@]1(C)[C@H]1CC[C@@H]2O1 [Cantharidin],10.7 µM
6,Nc1nc(F)nc2c1ncn2[C@@H]1O[C@H](CO)[C@@H](O)[C@@H]1O [Fludarabine],3.8 µM
7,CC[C@H](CO)Nc1nc(NCc2ccccc2)c2ncn(C(C)C)c2n1 [Roscovitine],26.7 µM
8,O=NN(CCCl)C(=O)NCCCl [Carmustine],26.7 µM
9,CN1C(=O)[C@]23CC4=CC=C[C@H](O)[C@H]4N2C(=O)[C@@]1(CO)SS3 [Gliotoxin],0.3 µM
10,Cn1c(CCCC(=O)O)nc2cc(N(CCCl)CCCl)ccc21 [Bendamustine],110 µM
11,O=C(O)CCCc1ccc(N(CCCl)CCCl)cc1 [Chlorambucil],6.6 µM

# Same assay, conditions: concentration at which 80-90% of uninfected lymphoma cells were killed; lowest viability of 24, 48 and 72 h between 10% and 20%
row,SMILES,Concentration used (LD80-90)
1,O=C1C(=O)N(Cc2ccc(Cl)c(Cl)c2)c2ccccc21 [Apoptosis Activator 2],1.9 µM
2,COc1cc2ncnc(Nc3cccc(Cl)c3)c2cc1OC [AG1478],19 µM
3,N.N.[Cl][Pt][Cl] [Cisplatin],3.3 µM
4,C=CCNC1=C2C[C@@H](C)C[C@H](OC)[C@H](O)[C@@H](C)/C=C(\C)[C@H](OC(N)=O)[C@@H](OC)/C=C\C=C(/C)C(=O)NC(=CC1=O)C2=O [17 AAG],2.6 µM
5,COc1cc2c(cc1O)CC[C@@H]1[C@@H]2CC[C@]2(C)[C@@H](O)CC[C@@H]12 [2-Methoxyestradiol],1.8 µM
6,CCNC(=O)c1noc(-c2cc(Cl)c(O)cc2O)c1-c1ccc(OC)cc1 [VER-50589],0.16 µM

# Same assay, conditions: figure legend 2c
row,SMILES,LD80-90
1,Cn1c(CCCC(=O)O)nc2cc(N(CCCl)CCCl)ccc21 [Bendamustine],110 µM

# Same assay, conditions: read-out: Concentration used (LD80-90)
row,SMILES,IC (80-90)
1,"Cc1c2oc3c(C)ccc(C(=O)N[C@@H]4C(=O)N[C@H](C(C)C)C(=O)N5CCC[C@H]5C(=O)N(C)CC(=O)N(C)[C@@H](C(C)C)C(=O)O[C@@H]4C)c3nc-2c(C(=O)N[C@@H]2C(=O)N[C@H](C(C)C)C(=O)N3CCC[C@H]3C(=O)N(C)CC(=O)N(C)[C@@H](C(C)C)C(=O)O[C@@H]2C)c(N)c1=O [Actinomycin D] (I: T[dV]P[Sar][NMeV] / II: T[dV]P[Sar][NMeV]; ester I:1-I:C, II:1-II:C; linker I:N-II:N via Actinocin(9to1))",0.0012 µM
2,CO[C@@]12[C@H](COC(N)=O)C3=C(C(=O)C(C)=C(N)C3=O)N1C[C@@H]1N[C@@H]12 [Mitomycin C],0.09 µM

# Test system: Eμ-Mycp19^Arf−/− lymphoma cells expressing shRNAs targeting the Bcl2 family, p53 and its activating kinases
# Experiment: 29-shRNA GFP competition assay, resistance index (RI), clustering and K-nearest-neighbors
# Format: cell-based, mouse
# Conditions: shRNA targeting Bim (Bim-dependence)
row,SMILES,log2RI
1,Nc1ncn([C@H]2C[C@H](O)[C@@H](CO)O2)c(=O)n1 [Decitabine],≈ 2

# Same assay, conditions: shRNA targeting p53 (p53-independence)
row,SMILES,log2RI
1,Nc1ncn([C@H]2C[C@H](O)[C@@H](CO)O2)c(=O)n1 [Decitabine],≈ 0
